Earlier results as cited in US10105415B2, “Compositions comprising granulocyte-macrophage colony-stimulating factor for the treatment of inflammatory bowel disease” (priority 2014, dated 2018).

Key:
[1] = not given; remark: listed apart in the source
[2] = given orally
[3] = oral / local
[4] = tested on: Crohn's disease; conditions: systemic (intravenous or subcutaneous), CD patients
[5] = given subcutaneously or infused intravenously for systemic effect
[6] = adverse effect frequency
[7] = tested on: Pseudomonas aeruginosa; conditions: controlled clinical trials
[8] = tested on: strains of organisms from the susceptible genera
[9] = tested on: polymorphonuclear leukocytes
[10] = tested on: resistant bacterial strains; conditions: controlled clinical trials, oral or intravenous

For `C[C@@H]1O[C@@H]1P(=O)(O)O` [Fosfomycin disodium], the “pH of 5% solution” value is given as 9.0-10.5, the solubility in water [1] is given as “highly soluble in water” and the bioavailability [2] is given as “high bioavailability”. The tolerability / irritation [3] was “locally irritant if un-neutralized”.
In the case of “GM-CSF: Monomeric glycoprotein of 127 amino-acid residues (SEQ ID NO: 2), colony-stimulating factor; recombinant forms regramostim, sargramostim, molgramostim”, the primary therapeutic endpoints [4] is given as “failed to achieve their primary therapeutic endpoints” and the plasma concentrations achieved [5] is given as greater than 1 ng/mL.
In the case of `C[C@@H]1O[C@@H]1P(=O)(O)O.NC(CO)(CO)CO` [Fosfomycin trometamol], the “pH of 5% solution” value is given as 3.5-5.5, the solubility in water [1] is given as “highly soluble in water” and the bioavailability [2] is given as “about 40%”. For the same compound, the tolerability / irritation [3] was “well tolerated”.
In the case of `C[C@@H]1O[C@@H]1P(=O)(O)O` [Fosfomycin, [(2R,3S)-3-methyloxiran-2-yl]phosphonic acid], the eosinophilia [6] is listed as 0.2%, the “transient rashes (evidence of allergy)” value [6] is listed as 0.3 % of cases and the “transiently raised liver enzymes” value [6] is listed as 0.3 % of cases. The “appearance of resistant bacterial strains, maximum” value [7] was no more than 15%, the “synergistic effect, share of tested strains” value ([8]; early studies, various antibiotic combinations) was 70-100% and the synergy rates ([8]; subsequent more extensive studies) was 36-74%. For the same compound, the “concentration in polymorphonuclear leukocytes relative to extracellular fluid” value [9] was “twice” and the “appearance of resistant bacterial strains, overall” value [10] was 3.0%.
For `C[C@@H]1O[C@@H]1P(=O)(O)O` [Fosfomycin calcium monohydrate], the “pH of 0.4% solution” value (0.4% solution) is given as 8.1-9.6, the solubility in water [1] is given as “sparingly soluble in water” and the bioavailability [2] is given as no less than 12%. For the same compound, the tolerability / irritation [3] was “less irritating to the stomach”.
